The values below come from article PMC3082971 (Biochemistry, 2011).

The target in the experiment is T1, hVDAC2 (Homo sapiens, UniProt P45880).
T1 sequence (P45880 2-294): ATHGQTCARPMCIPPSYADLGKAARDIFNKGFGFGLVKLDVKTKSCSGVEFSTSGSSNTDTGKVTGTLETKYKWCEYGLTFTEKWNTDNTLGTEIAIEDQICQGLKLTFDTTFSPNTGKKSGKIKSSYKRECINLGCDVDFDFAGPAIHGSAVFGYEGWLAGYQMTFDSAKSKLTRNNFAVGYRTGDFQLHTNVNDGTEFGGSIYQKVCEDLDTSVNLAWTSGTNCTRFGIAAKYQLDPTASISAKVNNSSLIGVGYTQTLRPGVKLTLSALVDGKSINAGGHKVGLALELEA
Briefly: biochemical.

Structures are written as SMILES.

On to `CCOc1ccccc1-n1c(C(C)N2CCN(C(=O)COc3ccc(Cl)cc3)CC2)nc2ccccc2c1=O` (stereo not shown) [erastin], for which a half-maximal response (EC50) required 52.6 ± 28.2 nM.
